Where two headings read alike, the source gives them in different places. Marks after values point to notes of the source that are not given here.
Columns and labels:
[1] = assay type: in vivo, mice; conditions: for AUC: over 24 h; for Cmax: mice, bolus by oral gavage, 0.25-24 h, n = 6 +/- SEM
[2] = assay type: in vivo, mice; conditions: for AUC: over 24 h; for Cmax: n = 6 +/- SEM
[3] = male, mouse, plasma, po, AUC, Chronic BDPP
[4] = male, mouse, plasma, po, AUC, Chronic Synbiotic
[5] = male, mouse, plasma, po, Tmax, Chronic BDPP
[6] = male, mouse, plasma, po, Tmax, Chronic Synbiotic
[7] = male, mouse, brain, po, AUC, Chronic BDPP
[8] = male, mouse, brain, po, AUC, Chronic Synbiotic
[9] = male, mouse, brain, po, Cmax, Chronic BDPP
[10] = male, mouse, brain, po, Cmax, Chronic Synbiotic
[11] = male, mouse, brain, po, Tmax, Chronic BDPP
[12] = male, mouse, brain, po, Tmax, Chronic Synbiotic

Row | AUC [1, 3] [µg·h/mL] | AUC [1, 4] [µg·h/mL] | Tmax [1, 5] [min] | Tmax [1, 6] [min] | AUC [2, 7] [µg·h/mL] | AUC [2, 8] [µg·h/mL] | Cmax [2, 9] [ng/mL] | Cmax [2, 10] [ng/mL] | Tmax [2, 11] [h] | Tmax [2, 12] [h] | Compound | other results
1 | 0.0853 | 0.305 | 30 | 18 | 0.0978 | 0.578 | 86.5 ± 38 | 118 ± 18 | 0.3 | 1 | O=c1c(O)c(-c2cc(O)c(O)c(O)c2)oc2cc(O)cc(O)c12 [MYR, Myricetin] | –
2 | 0.889 | 1.32 | 60 | 240 | 0.518 | 1.81 | 22.4 ± 11.6 | 111 ± 7.2 | 1 | 8 | O=C(O)CNC(=O)c1ccccc1 [HA, Hippuric acid] | –
3 | 0.0461 | 0.583 | 18 | 18 | 0.142 | 0.544 | 89.5 ± 48.3 | 98.6 ± 24.7 | 0.3 | 2 | O=c1c(O)c(-c2ccc(O)c(O)c2)oc2cc(O)cc(O)c12 [QUER, Quercetin] | –
4 | 0.205 | 1.47 | 60 | 30 | 5.92 | 6.22 | 296 ± 10 | 301 ± 14 | 1 | 1 | COc1cc(CC(=O)O)ccc1O [HVA, Homovanillic acid] | –
5 | 0.123 | 0.224 | 30 | 60 | – | – | – | – | – | – | O=C1CCC(Cc2ccc(O)c(O)c2)O1 (stereo not shown) [DHVL, 5-(3′,4′-Dihydroxyphenyl)-γ-valerolactone] | –
6 | 0.189 | 0.413 | 18 | 18 | – | – | – | – | – | – | Oc1cc(O)c2c(c1)O[C@H](c1ccc(O)c(O)c1)[C@H](O)C2 [EC, Epicatechin] | –
7 | 1.27 | 2.39 | 18 | – | 7.56 | 4.76 | 1340 ± 611 | 336 ± 112 | 0.3 | 2 | O=C(O)c1cc(O)c(O)c(O)c1 [GA, Gallic acid] | –

More lines, now with the values behind:

Row | Compound | AUC [1, 3] [µg·h/mL] | AUC [1, 4] [µg·h/mL] | Tmax [1, 5] [min] | Tmax [1, 6] [min] | AUC [2, 7] [µg·h/mL] | AUC [2, 8] [µg·h/mL] | Cmax [2, 9] [ng/mL] | Cmax [2, 10] [ng/mL] | Tmax [2, 11] [h] | Tmax [2, 12] [h] | other results
8 | O=C(O)c1ccc(O)cc1 [4-HBA, 4-Hydroxybenzoic acid] | 0.866 | 1.28 | – | 1440 | 1.7 | 6.68 | 108 ± 19.3 | 448 ± 15 | 0 | 8 | –
9 | O=C(O)Cc1cccc(O)c1 [3-HPAA, 3-Hydroxyphenylacetic acid] | 0.606 | 1.08 | 60 | 18 | 0.029 | 0.0412 | 2.7 ± 0.3 | 3.2 ± 0.5 | 0.5 | 0.5 | –
10 | COc1c(O)cc(C(=O)O)cc1O [4-MeGA, 4-O-Methylgallic acid] | 0.336 | 0.163 | 30 | 30 | 0.0033 | 0.0068 | 2.2 ± 0.4 | 5 ± 1 | 0.5 | 0.3 | –
11 | COc1cc(CCC(=O)O)ccc1O [DHFA, Dihyroferulic acid] | – | – | – | – | – | – | – | – | – | – | Tmax ([1]; Plasma, Chronic BDPP): 18 min; Cmax ([1]; Plasma, Chronic BDPP): 2.5 ± 0.7 ng/mL; AUC ([1]; Plasma, Chronic BDPP): 0.0307 µg·h/mL; Tmax ([1]; Plasma, Chronic Synbiotic): 18 min; Cmax ([1]; Plasma, Chronic Synbiotic): 0.0077 ± 0.0011 ng/mL; AUC ([1]; Plasma, Chronic Synbiotic): 0.0302 µg·h/mL
12 | O=C(O)CCc1cccc(O)c1 [3-HPPA, 3-(3-Hydroxyphenyl)propionic acid] | 0.0047 | 0.06 | 60 | 120 | – | – | – | – | – | – | –
13 | Oc1cc(O)c2c(c1)O[C@H](c1ccc(O)c(O)c1)[C@H](O)[C@H]2c1c(O)cc(O)c2c1O[C@H](c1ccc(O)c(O)c1)[C@H](O)C2 [PAC-B2, Proanthocyanidin dimer B2] | – | – | – | – | – | – | – | – | – | – | Tmax ([1]; Plasma, Chronic BDPP): 30 min; Cmax ([1]; Plasma, Chronic BDPP): 2.0 ± 0.7 ng/mL; AUC ([1]; Plasma, Chronic BDPP): 0.0015 µg·h/mL; Tmax ([1]; Plasma, Chronic Synbiotic): 30 min; Cmax ([1]; Plasma, Chronic Synbiotic): 0.0027 ± 0.0008 ng/mL; AUC ([1]; Plasma, Chronic Synbiotic): 3.5* ng/mL*h
14 | Oc1ccc(/C=C/c2cc(O)cc(O)c2)cc1 [RSV, t-Resveratrol (−)] | – | – | – | – | – | – | – | – | – | – | Tmax ([1]; Plasma, Chronic BDPP): 30 min; Cmax ([1]; Plasma, Chronic BDPP): 11628.0 ± 1788.0 ng/mL; AUC ([1]; Plasma, Chronic BDPP): 51313.0* ng/mL*h; Tmax ([1]; Plasma, Chronic Synbiotic): 30 min; Cmax ([1]; Plasma, Chronic Synbiotic): 15.785 ± 4.246 ng/mL; AUC ([1]; Plasma, Chronic Synbiotic): 33.1507 µg·h/mL; Tmax ([2]; Brain, Chronic BDPP): 0.3 h; Cmax ([2]; Brain, Chronic BDPP): 9.5 ± 2.5 ng/mL; AUC ([2]; Brain, Chronic BDPP): 122.3** ng/mL*h; Tmax ([2]; Brain, Chronic Synbiotic): 2.0 h; Cmax ([2]; Brain, Chronic Synbiotic): 0.0038 ± 0.0002 ng/mL; AUC ([2]; Brain, Chronic Synbiotic): 0.0331 µg·h/mL
15 | O=C(O)c1ccc(O)c(O)c1 [3,4-diHBA, 3,4-Dihydroxybenzoic acid] | 0.138 | 0.0334 | 18 | 18 | 0.0881 | 0.291 | 15.2 ± 3.1 | 14.4 ± 3.8 | 0.3 | 0.5 | –
16 | O=C(O)Cc1ccc(O)c(O)c1 [3,4-diHPAA, 3,4-Dihydroxyphenylacetic acid] | 0.74 | 0.344 | 30 | 30 | 2.2 | 2.12 | 100 ± 7 | 126 ± 24 | 1 | 2 | –
17 | O=C(O)CNC(=O)c1ccc(O)cc1 [4-HHA, 4-Hydroxyhippuric acid] | 0.0017 | 0.0059 | 18 | 120 | – | – | – | – | – | – | –
18 | O=C(O)c1cccc(O)c1 [3-HBA, 3-Hydroxybenzoic acid] | 0.366 | 0.214 | 60 | 60 | 0.0673 | 0.146 | 5.4 ± 0.4 | 8.9 ± 1.8 | 0.5 | 4 | –
19 | O=C(O)Cc1ccccc1 [PA, Phenylacetic acid] | 8630 | 8800 | 30 | 240 | 6970 | 14500 | 447000 ± 37200 | 760000 ± 140000 | 0.5 | 8 | –
20 | Oc1cc(O)c2c(c1)OC(c1ccc(O)c(O)c1)C(O)C2 (stereo not shown) [C, Catechin] | – | – | – | – | – | – | – | – | – | – | Tmax ([1]; Plasma, Chronic BDPP): 30 min; Cmax ([1]; Plasma, Chronic BDPP): 55.5 ± 7.8 ng/mL; AUC ([1]; Plasma, Chronic BDPP): 80.6** ng/mL*h; Tmax ([1]; Plasma, Chronic Synbiotic): 60 min; Cmax ([1]; Plasma, Chronic Synbiotic): 0.0098 ± 0.0007 ng/mL; AUC ([1]; Plasma, Chronic Synbiotic): 0.0252 µg·h/mL
21 | O=C(O)C=Cc1ccc(O)cc1 [4-HCA, 4-Hydroxycinnamic acid] | 0.455 | 1.67 | 18 | 18 | – | – | – | – | – | – | –
22 | Oc1ccc(CCc2cc(O)cc(O)c2)cc1 [DHRSV, Dihydroresveratrol] | 1.05 | 7.8 | 60 | 480 | – | – | – | – | – | – | –
23 | COc1cc(/C=C/C(=O)O)ccc1O [FA, Ferulic acid] | – | – | – | – | – | – | – | – | – | – | Tmax ([1]; Plasma, Chronic BDPP): 30 min; Cmax ([1]; Plasma, Chronic BDPP): 28.9 ± 9.7 ng/mL; AUC ([1]; Plasma, Chronic BDPP): 320.9** ng/mL*h; Tmax ([1]; Plasma, Chronic Synbiotic): 30 min; Cmax ([1]; Plasma, Chronic Synbiotic): 0.0226 ± 0.0062 ng/mL; AUC ([1]; Plasma, Chronic Synbiotic): 0.1388 µg·h/mL; Tmax ([2]; Brain, Chronic BDPP): 0.5 h; Cmax ([2]; Brain, Chronic BDPP): 1.5 ± 0.3 ng/mL; AUC ([2]; Brain, Chronic BDPP): 0.0188 µg·h/mL; Tmax ([2]; Brain, Chronic Synbiotic): 2.0 h; Cmax ([2]; Brain, Chronic Synbiotic): 0.0023 ± 0.0006 ng/mL; AUC ([2]; Brain, Chronic Synbiotic): 0.02 µg·h/mL
